Experimental data published in ChEMBL document CHEMBL4000220, “Optimization of spirocyclic proline tryptophan hydroxylase-1 inhibitors” (Bioorg Med Chem Lett, 2017).
Active and inactive are the calls of the source. The calls are words filed in the database; no cut-off is given here.

Legend:
[1] = system: Mus musculus; assay: Drug level in mouse treated with (S)-ethyl 8-(2-amino-6-((R)-1-(5-chloro-3'-methylbiphenyl-2-yl)-2,2,2-trifluoroethoxy)pyrimidin-4-yl)-2,8-diazaspiro[4.5]decane-3-carboxylate at 10 to 50 mg/kg, po administered as single dose; assay type: ADME, organism-based; settings: in vivo
[2] = molecular target: T1, Tryptophan 5-hydroxylase 1 (Homo sapiens, UniProt P17752)
T1 sequence (P17752 whole entry): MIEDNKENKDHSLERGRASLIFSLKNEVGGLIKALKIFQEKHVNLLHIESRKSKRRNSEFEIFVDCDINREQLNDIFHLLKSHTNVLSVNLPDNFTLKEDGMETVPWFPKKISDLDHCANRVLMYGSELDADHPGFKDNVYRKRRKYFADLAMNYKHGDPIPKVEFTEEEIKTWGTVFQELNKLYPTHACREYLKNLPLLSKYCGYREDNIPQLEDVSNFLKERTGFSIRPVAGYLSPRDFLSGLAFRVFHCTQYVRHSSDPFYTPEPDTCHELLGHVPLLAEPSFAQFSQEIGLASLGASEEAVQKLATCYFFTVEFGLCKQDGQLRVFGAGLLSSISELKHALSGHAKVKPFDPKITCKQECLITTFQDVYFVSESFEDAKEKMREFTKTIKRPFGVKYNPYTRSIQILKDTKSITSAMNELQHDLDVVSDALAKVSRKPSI
Description: Inhibition of TPH1 (unknown origin)

[3] = system: Mus musculus; assay: Drug level in mouse treated with (S)-ethyl 8-(2-amino-6-((R)-1-(3'-tert-butyl-5-chlorobiphenyl-2-yl)-2,2,2-trifluoroethoxy)pyrimidin-4-yl)-2,8-diazaspiro[4.5]decane-3-carboxylate at 10 to 50 mg/kg, po administered as single dose; assay type: ADME, organism-based; settings: in vivo
[4] = Drug level in rat hepatocytes treated with ethyl 8-(2-amino-6-((R)-1-(4-chloro-2-(3-methyl-1H-pyrazol-1-yl)phenyl)-2,2,2-trifluoroethoxy)pyrimidin-4-yl)-2,8-diazaspiro[4.5]decane-3-carboxylate; assay type: ADME, cell-based, Hepatocyte
[5] = system: Mus musculus; assay: Drug level in mouse treated with (S)-ethyl 8-(2-amino-6-((R)-1-(5-chloro-3'-sulfamoylbiphenyl-2-yl)-2,2,2-trifluoroethoxy)pyrimidin-4-yl)-2,8-diazaspiro[4.5]decane-3-carboxylate at 10 to 50 mg/kg, po administered as single dose; assay type: ADME, organism-based; settings: in vivo
[6] = system: Mus musculus; assay: Drug level in mouse treated with (S)-ethyl 8-(2-amino-6-((R)-1-(5-chloro-3'-(methylsulfonyl)biphenyl-2-yl)-2,2,2-trifluoroethoxy)pyrimidin-4-yl)-2,8-diazaspiro[4.5]decane-3-carboxylate at 10 to 50 mg/kg, po administered as single dose; assay type: ADME, organism-based; settings: in vivo
[7] = system: Mus musculus; assay: In vivo inhibition of TPH1 in mouse assessed as reduction in 5-HT level in intestinal mucosa at 50 mg/kg, po administered daily as single dose relative to control; assay type: functional
[8] = system: Mus musculus; assay: In vivo inhibition of TPH1 in mouse assessed as reduction in 5-HT level in intestinal mucosa at 10 mg/kg, po administered daily as single dose relative to control; assay type: functional
[9] = system: Mus musculus; assay: Prodrug activation in mouse assessed as (S)-8-(2-amino-6-((R)-1-(5-chloro-3'-methylbiphenyl-2-yl)-2,2,2-trifluoroethoxy)pyrimidin-4-yl)-2,8-diazaspiro[4.5]decane-3-carboxylic acid formation at 10 to 50 mg/kg, po administered as single dose; assay type: organism-based; settings: in vivo
[10] = system: Mus musculus; assay: Drug level in mouse treated with (S)-ethyl 8-(2-amino-6-((R)-1-(5-chloro-3',5'-difluorobiphenyl-2-yl)-2,2,2-trifluoroethoxy)pyrimidin-4-yl)-2,8-diazaspiro[4.5]decane-3-carboxylate at 10 to 50 mg/kg, po administered as single dose; assay type: ADME, organism-based; settings: in vivo
[11] = system: Mus musculus; assay: Drug level in mouse treated (S)-ethyl 8-(2-amino-6-((R)-1-(5-chloro-3'-fluorobiphenyl-2-yl)-2,2,2-trifluoroethoxy)pyrimidin-4-yl)-2,8-diazaspiro[4.5]decane-3-carboxylate at 10 to 50 mg/kg, po administered as single dose; assay type: ADME, organism-based; settings: in vivo
[12] = system: Mus musculus; assay: Prodrug activation in mouse assessed as (S)-8-(2-amino-6-((R)-1-(5-chloro-3'-(trifluoromethyl)biphenyl-2-yl)-2,2,2-trifluoroethoxy)pyrimidin-4-yl)-2,8-diazaspiro[4.5]decane-3-carboxylic acid formation at 10 to 50 mg/kg, po administered as single dose; assay type: organism-based; settings: in vivo
[13] = system: Mus musculus; assay: Prodrug activation in mouse assessed as (S)-8-(2-amino-6-((R)-1-(5-chloro-3',5'-difluorobiphenyl-2-yl)-2,2,2-trifluoroethoxy)pyrimidin-4-yl)-2,8-diazaspiro[4.5]decane-3-carboxylic acid formation at 10 to 50 mg/kg, po administered as single dose; assay type: organism-based; settings: in vivo
[14] = system: Mus musculus; assay: Prodrug activation in mouse assessed as (S)-8-(2-amino-6-((R)-1-(5-chloro-3'-methoxybiphenyl-2-yl)-2,2,2-trifluoroethoxy)pyrimidin-4-yl)-2,8-diazaspiro[4.5]decane-3-carboxylic acid formation at 10 to 50 mg/kg, po administered as single dose; assay type: organism-based; settings: in vivo
[15] = system: Mus musculus; assay: Drug level in mouse treated with (S)-ethyl 8-(2-amino-6-((R)-1-(5-chloro-3'-(trifluoromethyl)biphenyl-2-yl)-2,2,2-trifluoroethoxy)pyrimidin-4-yl)-2,8-diazaspiro[4.5]decane-3-carboxylate at 10 to 50 mg/kg, po administered as single dose; assay type: ADME, organism-based; settings: in vivo
[16] = system: Mus musculus; assay: Prodrug activation in mouse assessed as (S)-8-(2-amino-6-((R)-1-(3'-tert-butyl-5-chlorobiphenyl-2-yl)-2,2,2-trifluoroethoxy)pyrimidin-4-yl)-2,8-diazaspiro[4.5]decane-3-carboxylic acid formation at 10 to 50 mg/kg, po administered as single dose; assay type: organism-based; settings: in vivo
[17] = system: Mus musculus; assay: Drug level in mouse treated with (S)-ethyl 8-(2-amino-6-((R)-1-(5-chloro-3'-methoxybiphenyl-2-yl)-2,2,2-trifluoroethoxy)pyrimidin-4-yl)-2,8-diazaspiro[4.5]decane-3-carboxylate at 10 to 50 mg/kg, po administered as single dose; assay type: ADME, organism-based; settings: in vivo
[18] = system: Mus musculus; assay: Prodrug activation in mouse assessed as (S)-8-(2-amino-6-((R)-1-(5-chloro-3'-fluorobiphenyl-2-yl)-2,2,2-trifluoroethoxy)pyrimidin-4-yl)-2,8-diazaspiro[4.5]decane-3-carboxylic acid formation at 10 to 50 mg/kg, po administered as single dose; assay type: organism-based; settings: in vivo

Structure (SMILES) | IC50 [2] | inhibition [7] | also measured
Cc1cccc(-c2cc(Cl)ccc2[C@@H](Oc2cc(N3CCC4(CC3)CN[C@H](C(=O)O)C4)nc(N)n2)C(F)(F)F)c1 | 0.026 µM | – | Drug metabolism [1]: Metabolite_Detected
CC(C)(C)c1cccc(-c2cc(Cl)ccc2[C@@H](Oc2cc(N3CCC4(CC3)CN[C@H](C(=O)O)C4)nc(N)n2)C(F)(F)F)c1 | 0.023 µM | – | Drug metabolism [3]: Metabolite_Detected
Nc1nc(O[C@H](c2ccc(Cl)cc2-n2ccc(C(=O)O)n2)C(F)(F)F)cc(N2CCC3(CC2)CNC(C(=O)O)C3)n1 (stereo partly drawn) | – | – | Drug metabolism [4]: Metabolite_Detected
Nc1nc(O[C@H](c2ccc(Cl)cc2-c2cccc(S(N)(=O)=O)c2)C(F)(F)F)cc(N2CCC3(CC2)CN[C@H](C(=O)O)C3)n1 | 0.011 µM | – | Drug metabolism [5]: Metabolite_Detected
CS(=O)(=O)c1cccc(-c2cc(Cl)ccc2[C@@H](Oc2cc(N3CCC4(CC3)CN[C@H](C(=O)O)C4)nc(N)n2)C(F)(F)F)c1 | 0.014 µM | – | Drug metabolism [6]: Metabolite_Detected
Cc1c2ccc(-c3ccc([C@@H](Oc4cc(N5CCC6(CC5)CN[C@H](C(=O)O)C6)nc(N)n4)C(F)(F)F)cc3)cc2nn1C | 0.037 µM | inactive | –
CCOC(=O)[C@@H]1CC2(CCN(c3cc(O[C@H](c4ccc(Cl)cc4-c4cccc(C)c4)C(F)(F)F)nc(N)n3)CC2)CN1 | – | – | inhibition in vivo at 50 mg/kg [7]: 54%; inhibition in vivo at 10 mg/kg [8]: 24%; Drug metabolism [9]: Metabolite_Detected
Nc1nc(O[C@H](c2ccc(-c3ccc4c(c3)CCC(=O)N4)cc2)C(F)(F)F)cc(N2CCC3(CC2)CN[C@H](C(=O)O)C3)n1 | 0.028 µM | inactive | –
CN1CCc2cc(-c3ccc([C@@H](Oc4cc(N5CCC6(CC5)CN[C@H](C(=O)O)C6)nc(N)n4)C(F)(F)F)cc3)ccc2C1=O | 0.039 µM | inactive | –
Nc1nc(O[C@H](c2ccc(Cl)cc2-c2cc(F)cc(F)c2)C(F)(F)F)cc(N2CCC3(CC2)CN[C@H](C(=O)O)C3)n1 | 0.022 µM | – | Drug metabolism [10]: Metabolite_Detected
Nc1nc(O[C@H](c2ccc(Cl)cc2-c2cccc(F)c2)C(F)(F)F)cc(N2CCC3(CC2)CN[C@H](C(=O)O)C3)n1 | 0.032 µM | – | Drug metabolism [11]: Metabolite_Detected
CCOC(=O)[C@@H]1CC2(CCN(c3cc(O[C@H](c4ccc(Cl)cc4-c4cccc(C(F)(F)F)c4)C(F)(F)F)nc(N)n3)CC2)CN1 | – | – | inhibition in vivo at 50 mg/kg [7]: 64%; inhibition in vivo at 10 mg/kg [8]: 31%; Drug metabolism [12]: Metabolite_Detected
Nc1nc(O[C@H](c2ccc(-c3ccc4ncc(F)cc4c3)cc2)C(F)(F)F)cc(N2CCC3(CC2)CN[C@H](C(=O)O)C3)n1 | 0.04 µM | inactive | –
CCOC(=O)[C@@H]1CC2(CCN(c3cc(O[C@H](c4ccc(-c5ccc6c(C)n(C)nc6c5)cc4)C(F)(F)F)nc(N)n3)CC2)CN1 | – | inactive | –
CCOC(=O)[C@@H]1CC2(CCN(c3cc(O[C@H](c4ccc(Cl)cc4-c4cc(F)cc(F)c4)C(F)(F)F)nc(N)n3)CC2)CN1 | – | – | inhibition in vivo at 50 mg/kg [7]: 37%; inhibition in vivo at 10 mg/kg [8]: 30%; Drug metabolism [13]: Metabolite_Detected
Cn1ncc2cc(-c3ccc([C@@H](Oc4cc(N5CCC6(CC5)CN[C@H](C(=O)O)C6)nc(N)n4)C(F)(F)F)cc3)ccc21 | 0.03 µM | inactive | –
CCOC(=O)[C@@H]1CC2(CCN(c3cc(O[C@H](c4ccc(-c5ccc6nc(SC)ccc6c5)cc4)C(F)(F)F)nc(N)n3)CC2)CN1 | – | inactive | –

Structure (SMILES) | IC50 [2] | inhibition [7] | also measured
Nc1nc(O[C@H](c2ccc(Cl)cc2-n2ccc(COS(=O)(=O)O)n2)C(F)(F)F)cc(N2CCC3(CC2)CNC(C(=O)O)C3)n1 (stereo partly drawn) | – | – | Drug metabolism [4]: Metabolite_Detected
Cc1nn(C)c2cc(-c3ccc([C@@H](Oc4cc(N5CCC6(CC5)CN[C@H](C(=O)O)C6)nc(N)n4)C(F)(F)F)cc3)ccc12 | 0.032 µM | inactive | –
CCOC(=O)[C@@H]1CC2(CCN(c3cc(O[C@H](c4ccc(Cl)cc4-c4cccc(OC)c4)C(F)(F)F)nc(N)n3)CC2)CN1 | – | – | inhibition in vivo at 50 mg/kg [7]: 46%; inhibition in vivo at 10 mg/kg [8]: 19%; Drug metabolism [14]: Metabolite_Detected
Nc1nc(O[C@H](c2ccc(Cl)cc2-c2cccc(C(F)(F)F)c2)C(F)(F)F)cc(N2CCC3(CC2)CN[C@H](C(=O)O)C3)n1 | 0.021 µM | – | Drug metabolism [15]: Metabolite_Detected
CSc1ccc2cc(-c3ccc([C@@H](Oc4cc(N5CCC6(CC5)CN[C@H](C(=O)O)C6)nc(N)n4)C(F)(F)F)cc3)ccc2n1 | 0.026 µM | inactive | –
Nc1nc(O[C@H](c2ccc(Cl)cc2-n2ccc(CO)n2)C(F)(F)F)cc(N2CCC3(CC2)CNC(C(=O)O)C3)n1 (stereo partly drawn) | – | – | Drug metabolism [4]: Metabolite_Detected
CCOC(=O)[C@@H]1CC2(CCN(c3cc(O[C@H](c4ccc(Cl)cc4-c4cccc(C(C)(C)C)c4)C(F)(F)F)nc(N)n3)CC2)CN1 | – | – | inhibition in vivo at 50 mg/kg [7]: 59%; inhibition in vivo at 10 mg/kg [8]: 33%; Drug metabolism [16]: Metabolite_Detected
CCOC(=O)[C@@H]1CC2(CCN(c3cc(O[C@H](c4ccc(-c5ccc6[nH]ncc6c5)cc4)C(F)(F)F)nc(N)n3)CC2)CN1 | – | inactive | –
CCOC(=O)[C@@H]1CC2(CCN(c3cc(O[C@H](c4ccc(Cl)cc4-n4ccc(C)n4)C(F)(F)F)nc(N)n3)CC2)CN1 | – | – | inhibition in vivo at 50 mg/kg [7]: 61%
CCOC(=O)[C@@H]1CC2(CCN(c3cc(O[C@H](c4ccc(-c5ccc6c(c5)CCN(C)C6=O)cc4)C(F)(F)F)nc(N)n3)CC2)CN1 | – | inactive | –
Nc1nc(O[C@H](c2ccc(Cl)cc2)C(F)(F)F)cc(N2CCC3(CC2)CN[C@H](C(=O)O)C3)n1 | 0.46 µM | inactive | –
Nc1nc(O[C@H](c2ccc(-c3ccc4[nH]ncc4c3)cc2)C(F)(F)F)cc(N2CCC3(CC2)CN[C@H](C(=O)O)C3)n1 | 0.032 µM | inactive | –
Nc1nc(O[C@H](c2ccc(-c3ccc4cnccc4c3)cc2)C(F)(F)F)cc(N2CCC3(CC2)CN[C@H](C(=O)O)C3)n1 | 0.025 µM | inactive | –
COc1cccc(-c2cc(Cl)ccc2[C@@H](Oc2cc(N3CCC4(CC3)CN[C@H](C(=O)O)C4)nc(N)n2)C(F)(F)F)c1 | 0.019 µM | – | Drug metabolism [17]: Metabolite_Detected
CCOC(=O)[C@@H]1CC2(CCN(c3cc(O[C@H](c4ccc(Cl)cc4-c4cccc(F)c4)C(F)(F)F)nc(N)n3)CC2)CN1 | – | – | inhibition in vivo at 50 mg/kg [7]: 61%; inhibition in vivo at 10 mg/kg [8]: 38%; Drug metabolism [18]: Metabolite_Detected
CCOC(=O)[C@@H]1CC2(CCN(c3cc(O[C@H](c4ccc(Cl)cc4)C(F)(F)F)nc(N)n3)CC2)CN1 | – | inactive | –
